Reference: US11034725B2, “Compositions and methods for treating cardiovascular disease” (Genentech, Inc., priority 2016, dated 2021)
pEC50, pIC50, pKd: −log10 of the molar value. “Also recorded” adds a separate entry of the source. Like-named read-outs stand apart in the source and are kept apart here. Bridge positions count the residues as written; N and C are the ends. Peptide text beside a SMILES is read from it.

How the values were obtained:
PCSK9 [1] = molecular target: T1, PCSK9 (Homo sapiens, UniProt Q8NBP7); assay: Surface plasmon resonance biosensor-based affinity analysis (Example 4); type: binding; conditions: for pKd: Table 7, Target PCSK9, SPR at 20° C.
PCSK9Δhelix [2] = molecular target: T2, PCSK9Δhelix (Homo sapiens, UniProt Q8NBP7); assay: as above; type: binding
T2 construct: Human PCSK9 construct M1-Q692 with an engineered TEV site (residue deletion Y166, R167); made in house; host or cells: CHO

PCSK9 [3] = molecular target: T1, PCSK9; assay: PCSK9/EGF(A) TR-FRET binding assay; conditions: TR-FRET; Table 8D, disulfide-cyclized extension peptides; read-out: PCSK9/EGF(A) IC50
PCSK9Δhelix [4] = molecular target: T2, PCSK9Δhelix; assay: PCSK9Δhelix/Ab20 TR-FRET binding assay; conditions: TR-FRET, read-out: PCSK9Δhelix/Ab20 IC50
His-EGF(A)-Fc = His-EGF(A)-Fc TR-FRET counterscreen
PCSK9 [5] = molecular target: T1, PCSK9; assay: Phage competition ELISA; type: binding
Protocol: The sequences of selected clones were fused to the N-terminus of M13 major coat protein (p8) using Kunkel mutagenesis method (Kunkel et al., Methods Enzymol 154, 367-82). The resulting construct was transformed to E. Coli. XL1 blue, single colony was grown in 1 mL 2YT supplemented with 50 μg/mL carbenicillin, 10 μg/mL Tetracycline and M13 KO7 helper phage at 37° C. for 2 h, Kanamycin was added to final concentration of 25 μg/mL, growth was continued at 37° C. for 6 h. The culture was transferred to 30 mL 2YT supplemented with 50 μg/mL carbenicillin and 25 μg/mL kanamycin and grown at 37° C. overnight. The next day, the phage was harvested and purified using the standard protocol (Tonikian et al. Nat Protoc. 2007; 2(6):1368-86). The serially diluted phage solution was applied to the biotinylated PCSK9 and biotinylated PCSK9Δhelix that had been immobilized for 15 min on a 384-well MaxiSorp ImmunoPlate previously coated with 5 μg/mL NeutrAvidin and blocked with Block buffer. The plate was incubated at 4° C. for 1 h, washed 10 times with PT buffer (PBS, 0.05% Tween® 20). The bound phage was detected with anti-M13-HRP and the ELISA signal was read at OD450 nm. The background was ELISA signal that the phage directly bound to NeutrAvidin-coated plate. The data was plotted and the curve fitted with KaleidaGraph. Sub-saturating phage concentration that gave 80% of maximum binding signal was determined by the binding curve.
IC50 measurements were performed by mixing a fixed sub-saturating concentration of peptide-displaying phage with a serial dilution of synthetic peptides in PBT buffer. The mixture was added to plates coated with PCSK9 and PCSK9Δhelix and incubated for 1 h at room temperature. The plates were then washed 10 times with PBT buffer and the bound phage was detected by anti-M13-HRP. The data was plotted, curve fitted and IC50 derived by use of KaleidaGraph. All measurements were repeated 3 times independently.

PCSK9 [6] = molecular target: T1, PCSK9; assay: Cell surface LDLR assay with HepG2 cells; type: cell-based; conditions: HepG2 cells, 15 μg/mL PCSK9, 4 h, FACS
Protocol: HepG2 cells (ATCC; Manassas, Va.) were seeded into 48 well plates (Corning; Corning, N.Y.) at 1×10^5 cells per well in high glucose medium (DMEM, Gibco; Carlsbad, Calif.) containing 2 mM glutamine (Sigma), penicillin/streptomycin (Gibco) and 10% FBS (Sigma; St. Louis, Mo.) and incubated overnight. Then the medium was changed to DMEM containing 10% lipoprotein deficient serum (LPDS, Sigma). After 24 h, 15 μg/mL PCSK9 was incubated with peptides or Fab33 for 30 min, added to the cells and incubated at 37° C. for 4 h. Cells were rinsed with PBS and detached using Cell Dissociation Buffer in PBS (Gibco). After centrifugation, the resuspended cells were incubated with 1:20 anti LDLR antibody (Progen Biotechnik; Heidelberg, Germany) on ice for 10 min. The samples were then washed with PBS and incubated with 1:200 diluted goat anti mouse IgG (H+L) Alexa Fluor 488 (Invitrogen; Carlsbad, Calif.) on ice for 5 min. After two PBS washes, cells were re suspended in PBS containing 2.5 μg/mL of propidium iodide and analyzed on a dual laser flow cytometer (FACScan, Becton Dickinson; Franklin Lakes, N.J.). Relative fluorescence units (RFUs) were used to quantify LDLR expression levels on the HepG2 cell surface. Cell surface LDLR levels were expressed as percent of LDLR levels measured in the absence of PCSK9 (=control).
The effect of Compound 229 on PCSK9-mediated LDL receptor degradation was measured in a HepG2 cell assay as previously described (Zhang et al., J Biol Chem. 2014 Jan. 10; 289(2):942-55). Peptides at various concentrations were preincubated with 15 μg/mL PCSK9 in the presence of 0.5% DMSO for 30 min prior to the addition to cells. After a 4 h incubation, the cells were processed for measurements of LDL receptor surface levels by flow cytometry as described (Zhang et al., J Biol Chem. 2014 Jan. 10; 289(2):942-55) (FIG. 37).

[7] = molecular target: T3, PCSK9-R167A:R215A:R218A (PCSK9-AAA) (Homo sapiens, UniProt Q8NBP7, R167A/R215A/R218A); assay: FXIa cleavage assay of the P′ helix of PCSK9-AAA; type: biochemical; conditions: immunoblot with anti-N-terminal peptide antibody
T3 construct: made in house; host or cells: CHO (transient)
Protocol: The PCSK9-AAA mutant (2.6 μM) was incubated with 50 nM FXIa (Haematologic Technologies) in Tris buffer (50 mM Tris, 150 mM NaCl, 4 mM CaCl2, pH 8.0) at room temperature for the indicated time periods. […] After SDS-PAGE of the samples, proteins were transferred to a nitrocellulose membrane using iBlot (Invitrogen). Proteins were then probed with a polyclonal rabbit antibody (1:3000) raised against the PCSK9 N-terminal peptide (^153[…]^168 (SEQ ID NO: 5)), followed with HRP-conjugated donkey anti-rabbit antibody (1:5000, GE Healthcare) using iBind (Invitrogen). PCSK9 signals were detected by ECL (GE Healthcare) and visualized by autoradiography.
Proteins were then probed with a polyclonal rabbit antibody (1:3000) raised against the PCSK9 N-terminal peptide (^153[…]^168 (SEQ ID NO: 5)), followed with HRP-conjugated donkey anti-rabbit antibody (1:5000, GE Healthcare) using iBind (Invitrogen). PCSK9 signals were detected by ECL (GE Healthcare) and visualized by autoradiography.

[8] = Example 4, read-out: Kd for PCSK9Δhelix
[9] = Table 8D, disulfide-cyclized extension peptides
[10] = TR-FRET counterscreen, Table 8D, * = some inhibition at highest concentrations, not sufficient to fit an IC50
[11] = Table 7, Target PCSK9Δhelix, SPR at 20° C., read-out: Kd

Compound: CC[C@H](C)[C@@H]1NC(=O)[C@H](CCCNC(=N)N)NC(=O)[C@H](CCC(N)=O)NC(=O)[C@H](CC(C)C)NC(=O)[C@H](CC(N)=O)NC(=O)[C@H](Cc2c[nH]c3ccccc23)NC(=O)[C@@H]2CCCN2C(=O)[C@H](CC(C)C)NC(=O)[C@H](CCCNC(=N)N)NC(=O)[C@@H](NC(C)=O)CSSC[C@@H](C(N)=O)NC(=O)[C@@H]2CCCN2C(=O)[C@H](CC(C)C)NC(=O)CNC1=O [Compound 32] (Ac-CRLPWNLQRIGLPC-NH2; disulfide 1-14)
- pKd (PCSK9 [1]): 5.89
- pKd (PCSK9Δhelix [2]; [8]): 6.68
- pIC50 (PCSK9 [3]): < 4.30
- pIC50 (PCSK9Δhelix [4]; Example 7): ~6.00
- pIC50 (PCSK9Δhelix [4]; [9]): 6.01
- pIC50 (His-EGF(A)-Fc; [10]): < 4.30

Compound: CC[C@H](C)[C@@H]1NC(=O)[C@H](CCCNC(=N)N)NC(=O)[C@H](CCC(N)=O)NC(=O)[C@H](CC(C)C)NC(=O)[C@H](CC(N)=O)NC(=O)[C@H](Cc2c[nH]c3ccccc23)NC(=O)[C@@H]2CCCN2C(=O)[C@H]([C@@H](C)CC)NC(=O)[C@H](Cc2ccccc2)NC(=O)[C@@H](NC(=O)CNC(=O)[C@@H](N)CO)CSSC[C@@H](C(N)=O)NC(=O)[C@H](CC(C)C)NC(=O)[C@H](CC(C)C)NC(=O)CNC1=O [Compound K9gvpep1] (H-SGCFIPWNLQRIGLLC-NH2; disulfide 3-16)
- competition with binding of phage-displayed Pep2-8 to PCSK9 (PCSK9 [5]): did not compete

Compound: CC[C@H](C)[C@@H]1NC(=O)[C@H](CCCNC(=N)N)NC(=O)[C@H](CCC(N)=O)NC(=O)[C@H](CC(C)C)NC(=O)[C@H](CC(N)=O)NC(=O)[C@H](Cc2c[nH]c3ccccc23)NC(=O)[C@@H]2CCCN2C(=O)[C@H](CC(C)C)NC(=O)[C@H](CCCNC(=N)N)NC(=O)[C@@H](NC(=O)CNC(=O)[C@@H](N)CO)CSSC[C@@H](C(N)=O)NC(=O)[C@@H]2CCCN2C(=O)[C@H](CC(C)C)NC(=O)CNC1=O [Compound K9gvpep4] (H-SGCRLPWNLQRIGLPC-NH2; disulfide 3-16)
- competition with binding of phage-displayed Pep2-8 to PCSK9 (PCSK9 [5]): did not compete

Compound: CC(=O)N[C@H](C(=O)N[C@H](C(=O)N[C@@H](Cc1ccccc1)C(=O)N[C@H](C(=O)N[C@@H](CO)C(=O)N[C@@H](Cc1c[nH]c2ccccc12)C(=O)N[C@@H](CCC(=O)O)C(=O)N[C@@H](CCC(=O)O)C(=O)N[C@@H](Cc1ccc(O)cc1)C(=O)N[C@@H](CC(C)C)C(=O)N[C@@H](CC(=O)O)C(=O)N[C@@H](Cc1c[nH]c2ccccc12)C(=O)N[C@H](C(N)=O)C(C)C)[C@@H](C)O)C(C)C)[C@@H](C)O [Pep2-8, reference compound]
- pIC50 (His-EGF(A)-Fc; counterscreen, Example 7): < 4.30
- pEC50 (PCSK9 [6]): 5.00 to 5.30
- effect on FXIa-mediated cleavage of the P′ helix of PCSK9-AAA [7]: largely prevented cleavage
- competition with binding of phage-displayed Pep2-8 to PCSK9 (PCSK9 [5]): inhibited phage-displayed Pep2-8 binding

Compound: CC[C@H](C)[C@@H]1NC(=O)[C@H](CCCNC(=N)N)NC(=O)[C@H](CCC(N)=O)NC(=O)[C@H](CC(C)C)NC(=O)[C@H](CC(N)=O)NC(=O)[C@H](Cc2c[nH]c3ccccc23)NC(=O)[C@@H]2CCCN2C(=O)[C@H]([C@@H](C)CC)NC(=O)[C@H](Cc2ccccc2)NC(=O)[C@@H](NC(=O)CNC(=O)[C@@H](N)CO)CSSC[C@@H](C(N)=O)NC(=O)[C@H](CC(C)C)NC(=O)[C@H](CC(C)C)NC(=O)CNC1=O [Compound 26] (H-SGCFIPWNLQRIGLLC-NH2; disulfide 3-16)
- pKd (PCSK9 [1]): 4.54
- pKd (PCSK9Δhelix [2]; [11]): 6.10
- effect on FXIa-mediated cleavage of the P′ helix of PCSK9-AAA [7]: accelerated the cleavage reaction; also recorded: able to increase the FXIa-mediated cleavage; also recorded: strongly accelerated the cleavage

Compound: CC[C@H](C)[C@@H]1NC(=O)[C@H](CCCNC(=N)N)NC(=O)[C@H](C)NC(=O)[C@H](CC(C)C)NC(=O)[C@H](CC(N)=O)NC(=O)[C@H](Cc2c[nH]c3ccccc23)NC(=O)[C@@H]2CCCN2C(=O)[C@H](CC(C)C)NC(=O)[C@H](CCCNC(=N)N)NC(=O)[C@@H](NC(C)=O)CSSC[C@@H](C(N)=O)NC(=O)[C@@H]2CCCN2C(=O)[C@H](CC(C)C)NC(=O)CNC1=O [Compound 73] (Ac-CRLPWNLARIGLPC-NH2; disulfide 1-14)
- pKd (PCSK9 [1]): 4.96
- pKd (PCSK9Δhelix [2]; [8]): 6.78
- pIC50 (PCSK9 [3]): < 4.30
- pIC50 (PCSK9Δhelix [4]; [9]): 6.04
- pIC50 (His-EGF(A)-Fc; [10]): < 4.30

Compound: CC(=O)N[C@H](C(=O)N[C@H](C(=O)N[C@@H](Cc1ccccc1)C(=O)N[C@H](C(=O)N[C@@H](CO)C(=O)N[C@@H](Cc1c[nH]c2cc(F)ccc12)C(=O)N[C@@H](CCC(=O)O)C(=O)N[C@@H](CCC(=O)O)C(=O)N[C@@H](Cc1ccc(O)cc1)C(=O)N[C@@H](CC(C)C)C(=O)N[C@@H](CC(=O)O)C(=O)N[C@@H](Cc1c[nH]c2ccccc12)C(=O)N[C@H](C(N)=O)C(C)C)[C@@H](C)O)C(C)C)[C@@H](C)O [Compound 3, Ac-TVFTS(W6fl)EEYLDWV-NH2]
- improvement of binding to PCSK9 relative to Pep2-8 (PCSK9 [1]; Table 7): about 3 fold
- pKd (PCSK9 [1]): 5.85
- pKd (PCSK9Δhelix [2]; [11]): 5.59
